Paper PMC7185411 (Biochimica et Biophysica Acta. Proteins and Proteomics, 2015)
Read-outs that look alike come from different tables or passages of the source. Marks after values point to notes of the source that are not given here. Residues, ends and D or L forms follow the SMILES beside them. *: point of attachment. Cbz = O=C(OCc1ccccc1)*

Legend:
Chymotrypsin [1] = assay: Binding of inhibitors to chymotrypsin; type: biochemical; conditions: for KiIH/KiICHO or KiIH/KiICOCHO: fold increase in binding due to aldehyde or glyoxal group; for KiIH/KiICOOH: pH 7.2, ratio of Ki(obs) of peptide-H to peptide-COOH
Chymotrypsin [2] = conditions: read-out: Ki(obs), cited from earlier work
[3] = cited from earlier work; for KH1: KH1 = KH1obs/[H2O], 25 °C
α-Chymotrypsin = conditions: equilibrium constant for hemiketal formation; cited from earlier work
[4] = hydration of glyoxal keto group

Compound | KiIH/KiICHO or KiIH/KiICOCHO (Chymotrypsin [1]) | Ki (Chymotrypsin [2]; 25 °C) [µM] | KH1 [3] | KH1(obs) ([3]; hydration of aldehyde group) | Ki (Chymotrypsin [2]; pH 7.2, 25 °C) [µM] | KH1(obs) [3, 4] | KHK (α-Chymotrypsin) | KiIH/KiICHO or KiIH/KiICOCHO (Chymotrypsin [1]; listed as Z-APF-COCHO) | fold tighter binding on replacing the α-carboxylate group with a hydrogen atom (Chymotrypsin [1]) | KiIH/KiICOOH (Chymotrypsin [1])
C[C@H](NC(=O)OCc1ccccc1)C(=O)N[C@@H](C)C(=O)N[C@@H](Cc1ccccc1)C(=O)C=O [ZAAF-CHO, Z-Ala-Ala-Phe-CHO] | 100 | 1.7 ± 0.4 | 0.25 | 13.9 ^e |  |  |  |  |  | 
CC(NC(=O)OCc1ccccc1)C(=O)NC(C)C(=O)NC(Cc1ccccc1)C(=O)C=O (stereo not shown) [ZAAF-COCHO] | 455 |  | 0.0284 |  | 0.365 | 1.58 ^d | 1170 |  |  | 
C[C@H](NC(=O)OCc1ccccc1)C(=O)N1CCC[C@H]1C(=O)N[C@@H](Cc1ccccc1)C(=O)C=O [ZAPF-COCHO] | 2310 |  | 0.023 |  | 0.0335 | 1.28 ^c | 5270 | 460–2300 |  | 
CC(NC(=O)OCc1ccccc1)C(=O)N1CCCC1C(=O)NC(C=O)Cc1ccccc1 (stereo not drawn) [ZAPF-H, Z-Ala-Pro-Phe-H] (Cbz-Ala-Pro-Phe-aldehyde; configuration not given here) |  |  |  |  | 77.4 ± 6.4 |  |  |  |  | 
Cbz-Ala-Ala-Phe-OH [ZAAF-COOH] |  |  |  |  | 532 ± 50 |  |  |  | 3–4 fold | 0.31
Cbz-Ala-Pro-Phe-OH [ZAPF-COOH] |  |  |  |  | 241 ± 7 |  |  |  | 3–4 fold | 0.32
